Experimental data from the supplement of paper PMC8671470.

Experiments:
Settings in all cases: 72 h
BV-173 [1] = test system: BV-173
Method in brief: (§1)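 Fifteen myeloid leukaemia cell lines were seeded in RPMI 1640 at densities titrated to the linear growth range and placed in 384-well plates with acoustically pre-printed compounds at five tenfold doses from 1 to 10,000 nM, in duplicate. After 72 h at 37 °C with 5% CO2, luminescent ATP viability was normalised to vehicle and to a positive control at 10 µM, and curves were fitted with a four-parameter log-logistic model. The IC50 was obtained from these fits.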

HEL [2] = test system: HEL
Method in brief: as §1

HL-60 [3] = test system: HL-60
Method in brief: as §1

K-562 [4] = test system: K-562
Method in brief: as §1

KCL-22 [5] = test system: KCL-22
Method in brief: as §1

KG-1 [6] = test system: KG-1
Method in brief: as §1

KU-812 [7] = test system: KU-812
Method in brief: as §1

LAMA-84 [8] = test system: LAMA-84
Method in brief: as §1

ML-2 [9] = test system: ML-2
Method in brief: as §1

MOLM-13 [10] = test system: MOLM-13
Method in brief: as §1

MV4-11 [11] = test system: MV4-11
Method in brief: as §1

Mono-Mac-6 [12] = test system: Mono-Mac-6
Method in brief: as §1

NOMO-1 [13] = test system: NOMO-1
Method in brief: as §1

SHI-1 [14] = test system: SHI-1
Method in brief: as §1

THP-1 [15] = test system: THP-1
Method in brief: as §1

BV-173 [16] = assay: cell viability (% survival relative to DMSO control, bortezomib = 0%); higher = less cytotoxic
Method in brief: (§2)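 Fifteen myeloid leukaemia cell lines were exposed to compounds at 1, 10, 100, 1000 or 10000 nM in 384-well plates for 72 h at 37 °C and 5% CO2. Viability was read by CellTiter-Glo luminescence and normalised, with vehicle as 100% and a 10 µM positive control as 0%. Values are percent survival averaged over duplicates.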

HEL [17] = assay: as above
Method in brief: as §2

HL-60 [18] = assay: as above
Method in brief: as §2

K-562 [19] = assay: as above
Method in brief: as §2

KCL-22 [20] = assay: as above
Method in brief: as §2

KG-1 [21] = assay: as above
Method in brief: as §2

KU-812 [22] = assay: as above
Method in brief: as §2

LAMA-84 [23] = assay: as above
Method in brief: as §2

ML-2 [24] = assay: as above
Method in brief: as §2

MOLM-13 [25] = assay: as above
Method in brief: as §2

MV4-11 [26] = assay: as above
Method in brief: as §2

Mono-Mac-6 [27] = assay: as above
Method in brief: as §2

NOMO-1 [28] = assay: as above
Method in brief: as §2

SHI-1 [29] = assay: as above
Method in brief: as §2

THP-1 [30] = assay: as above
Method in brief: as §2

O=C(C(=O)c1ccc(Br)cc1)c1ccc(Br)cc1 [4,4'-Dibromobenzil]
Settings | IC50 (cell viability) [µM]
BV-173 [1] | > 10
HEL [2] | > 10
HL-60 [3] | > 10
K-562 [4] | > 10
KCL-22 [5] | > 10
KG-1 [6] | > 10
KU-812 [7] | > 10
LAMA-84 [8] | > 10
ML-2 [9] | > 10
MOLM-13 [10] | > 10
MV4-11 [11] | > 10
Mono-Mac-6 [12] | > 10
NOMO-1 [13] | > 10
SHI-1 [14] | > 10
THP-1 [15] | > 10

cell viability [%]
Settings | 1 nM | 10 nM | 100 nM | 1000 nM | 10000 nM
BV-173 [16] | 104 | 117 | 112 | 105 | 117
HEL [17] | 96.7 | 96.8 | 120 | 114 | 115
HL-60 [18] | 91.8 | 99.6 | 93.4 | 98.1 | 88.5
K-562 [19] | 101 | 90.3 | 114 | 100 | 112
KCL-22 [20] | 95.4 | 87.2 | 94.9 | 101 | 95.5
KG-1 [21] | 95.5 | 98.6 | 101 | 100 | 91
KU-812 [22] | 86.9 | 98.3 | 104 | 103 | 91.5
LAMA-84 [23] | 98.8 | 101 | 109 | 106 | 96.9
ML-2 [24] | 91.7 | 99.9 | 92.3 | 100 | 107
MOLM-13 [25] | 87 | 83.8 | 80.4 | 87.5 | 93.8
MV4-11 [26] | 101 | 92.1 | 107 | 85.3 | 89.3
Mono-Mac-6 [27] | 109 | 101 | 94 | 109 | 97.9
NOMO-1 [28] | 95.6 | 110 | 99.8 | 104 | 96.2
SHI-1 [29] | 92.4 | 101 | 90 | 103 | 98.4
THP-1 [30] | 98.2 | 103 | 100 | 95 | 97.6
